#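 1) Cells in 96-well plates. 2) Compound, 48 h, 5 concentrations. 3) Linear interpolation between surrounding doses. 4) Unreached endpoint = highest concentration. GI50 marks 50% less growth. TGI marks complete inhibition of growth.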
# Assays:
# Experiment in all cases: inhibition of tumour cell growth, NCI panel, 48 h
# [1] = system: EKVX NSCLC
# [2] = system: OVCAR-4 ovarian
# [3] = system: T-47D breast
# [4] = system: SNB-19 CNS
# [5] = system: OVCAR-3 ovarian
# [6] = system: HOP-62 NSCLC
# [7] = system: 786-0 renal
# [8] = system: SN12C renal
# [9] = system: SR leukemia
# [10] = system: HCT-15 colon
# [11] = system: SK-OV-3 ovarian
# [12] = system: HT29 colon
# [13] = system: DU-145 prostate
# [14] = system: TK-10 renal
# [15] = system: OVCAR-5 ovarian
# [16] = system: SF-268 CNS
# [17] = system: SK-MEL-28 melanoma
# [18] = system: UACC-62 melanoma
# [19] = system: ACHN renal
# [20] = system: MDA-MB-435
# [21] = system: HOP-92 NSCLC
# [22] = system: COLO 205 colon
# [23] = system: CCRF-CEM leukemia
# [24] = system: SF-295 CNS
# [25] = system: IGROV1 ovarian
# [26] = system: M14 melanoma
# [27] = system: MALME-3M melanoma
# [28] = system: SF-539 CNS
# [29] = system: PC-3 prostate
# [30] = system: A549 NSCLC
# [31] = system: UACC-257 melanoma
# [32] = system: U251 CNS
# [33] = system: UO-31 renal
# [34] = system: LOX IMVI melanoma
# [35] = system: NCI-H522 lung
# [36] = system: SK-MEL-2 melanoma
# [37] = system: RXF 393 renal
# [38] = system: NCI-H460 lung
# [39] = system: KM12 colon
# [40] = system: RPMI-8226 leukemia
# [41] = system: NCI-H226 lung
# [42] = system: HL-60(TB) leukemia
# [43] = system: CAKI-1 renal
# [44] = system: MDA-MB-231 breast
# [45] = system: HCC-2998 colon
# [46] = system: SK-MEL-5 melanoma
# [47] = system: K-562 leukemia
# [48] = system: BT-549 breast
# [49] = system: OVCAR-8 ovarian
# [50] = system: HS 578T breast
# [51] = system: NCI-H23 lung
# [52] = system: SNB-75 CNS
# [53] = system: MCF7 breast
# [54] = system: SW-620 colon
# [55] = system: MOLT-4 leukemia
# [56] = system: NCI/ADR-RES ovarian
# [57] = system: HCT-116 colon
# [58] = system: A498 renal
structure (smiles),measurement,setting,value
O=c1[nH]c2c3ccncc3cc(-c3cccc(Cl)c3)c2c2cnccc12,GI50,[1],> 100 µM
same,TGI,[1],> 100 µM
same,GI50,[2],> 100 µM
same,TGI,[2],> 100 µM
same,GI50,[3],> 100 µM
same,TGI,[3],> 100 µM
same,GI50,[4],25.6 µM
same,TGI,[4],> 100 µM
same,GI50,[5],3.7 µM
same,TGI,[5],> 100 µM
same,GI50,[6],27.9 µM
same,TGI,[6],91.5 µM
same,GI50,[7],18.8 µM
same,TGI,[7],79.5 µM
same,GI50,[8],84.2 µM
same,TGI,[8],> 100 µM
same,GI50,[9],0.442 µM
same,TGI,[9],> 100 µM
same,GI50,[10],> 100 µM
same,TGI,[10],> 100 µM
same,GI50,[11],24.7 µM
same,TGI,[11],> 100 µM
same,GI50,[12],> 100 µM
same,TGI,[12],> 100 µM
same,GI50,[13],> 100 µM
same,TGI,[13],> 100 µM
same,GI50,[14],40.2 µM
same,TGI,[14],> 100 µM
same,GI50,[15],> 100 µM
same,TGI,[15],> 100 µM
same,GI50,[16],20.8 µM
same,TGI,[16],> 100 µM
same,GI50,[17],> 100 µM
same,TGI,[17],> 100 µM
same,GI50,[18],44.3 µM
same,TGI,[18],> 100 µM
same,GI50,[19],1.91 µM
same,TGI,[19],> 100 µM
same,GI50,[20],> 100 µM
same,TGI,[20],> 100 µM
same,GI50,[21],69.5 µM
same,TGI,[21],> 100 µM
same,GI50,[22],> 100 µM
same,TGI,[22],> 100 µM
same,GI50,[23],> 100 µM
same,TGI,[23],> 100 µM
same,GI50,[24],34 µM
same,TGI,[24],> 100 µM
same,GI50,[25],72.2 µM
same,TGI,[25],> 100 µM
same,GI50,[26],> 100 µM
same,TGI,[26],> 100 µM
same,GI50,[27],> 100 µM
same,TGI,[27],> 100 µM
same,GI50,[28],19.6 µM
same,TGI,[28],> 100 µM
same,GI50,[29],> 100 µM
same,TGI,[29],> 100 µM
same,GI50,[30],> 100 µM
same,TGI,[30],> 100 µM
same,GI50,[31],> 100 µM
same,TGI,[31],> 100 µM
same,GI50,[32],4.52 µM
same,TGI,[32],> 100 µM
same,GI50,[33],> 100 µM
same,TGI,[33],> 100 µM
same,GI50,[34],2.04 µM
same,TGI,[34],> 100 µM
same,GI50,[35],30.4 µM
same,TGI,[35],> 100 µM
same,GI50,[36],47.9 µM
same,TGI,[36],> 100 µM
same,GI50,[37],0.737 µM
same,TGI,[37],52.3 µM
same,GI50,[38],> 100 µM
same,TGI,[38],> 100 µM
same,GI50,[39],> 100 µM
same,TGI,[39],> 100 µM
same,GI50,[40],> 100 µM
same,TGI,[40],> 100 µM
same,GI50,[41],73.8 µM
same,TGI,[41],> 100 µM
same,GI50,[42],> 100 µM
same,TGI,[42],> 100 µM
same,GI50,[43],> 100 µM
same,TGI,[43],> 100 µM
same,GI50,[44],4.71 µM
same,TGI,[44],> 100 µM
same,GI50,[45],> 100 µM
same,TGI,[45],> 100 µM
same,GI50,[46],> 100 µM
same,TGI,[46],> 100 µM
same,GI50,[47],> 100 µM
same,TGI,[47],> 100 µM
same,GI50,[48],7.94 µM
same,TGI,[48],> 100 µM
same,GI50,[49],11.7 µM
same,TGI,[49],> 100 µM
same,GI50,[50],28.8 µM
same,TGI,[50],> 100 µM
same,GI50,[51],12.9 µM
same,TGI,[51],> 100 µM
same,GI50,[52],17.7 µM
same,TGI,[52],89.7 µM
same,GI50,[53],> 100 µM
same,TGI,[53],> 100 µM
same,GI50,[54],> 100 µM
same,TGI,[54],> 100 µM
same,GI50,[55],> 100 µM
same,TGI,[55],> 100 µM
same,GI50,[56],39.9 µM
same,TGI,[56],> 100 µM
Oc1ccc(Cl)cc1-c1cc(-c2ccc(Cl)cc2)n[nH]1,GI50,[2],0.322 µM
same,TGI,[2],5.7 µM
same,GI50,[3],1.45 µM
same,TGI,[3],7.73 µM
same,GI50,[4],2.59 µM
same,TGI,[4],12.1 µM
same,GI50,[5],1.53 µM
same,TGI,[5],4.59 µM
same,GI50,[6],1.6 µM
same,TGI,[6],13.6 µM
same,GI50,[7],2.51 µM
same,TGI,[7],7.54 µM
same,GI50,[8],3.13 µM
same,TGI,[8],15.5 µM
same,GI50,[9],0.577 µM
same,TGI,[9],12.3 µM
same,GI50,[10],0.349 µM
same,TGI,[10],6.31 µM
same,GI50,[11],2.21 µM
same,TGI,[11],13.8 µM
same,GI50,[13],3.02 µM
same,TGI,[13],11 µM
same,GI50,[14],3.56 µM
same,TGI,[14],12.4 µM
same,GI50,[57],1.57 µM
same,TGI,[57],2.99 µM
same,GI50,[15],9.55 µM
same,TGI,[15],36.5 µM
same,GI50,[16],2.64 µM
same,TGI,[16],15.1 µM
same,GI50,[17],4.46 µM
same,TGI,[17],21.2 µM
same,GI50,[18],2.49 µM
same,TGI,[18],10.4 µM
same,GI50,[19],2.45 µM
same,TGI,[19],9.23 µM
same,GI50,[20],3.14 µM
same,TGI,[20],14.2 µM
same,GI50,[21],1.18 µM
same,TGI,[21],4.6 µM
same,GI50,[22],3.73 µM
same,TGI,[22],15.3 µM
same,GI50,[23],1.45 µM
same,TGI,[23],14.5 µM
same,GI50,[24],3.01 µM
same,TGI,[24],12.8 µM
same,GI50,[25],1.9 µM
same,TGI,[25],15.9 µM
same,GI50,[26],2.72 µM
same,TGI,[26],11.6 µM
same,GI50,[28],3.56 µM
same,TGI,[28],14.7 µM
same,GI50,[29],1.78 µM
same,TGI,[29],8.44 µM
same,GI50,[30],2.99 µM
same,TGI,[30],13.9 µM
same,GI50,[31],9.92 µM
same,TGI,[31],37.7 µM
same,GI50,[32],3.2 µM
same,TGI,[32],11.3 µM
same,GI50,[33],1.38 µM
same,TGI,[33],10.1 µM
same,GI50,[34],2.02 µM
same,TGI,[34],5.65 µM
same,GI50,[35],3.26 µM
same,TGI,[35],12.9 µM
same,GI50,[36],11.3 µM
same,TGI,[36],30.1 µM
same,GI50,[37],6.01 µM
same,TGI,[37],20.8 µM
same,GI50,[38],2.03 µM
same,TGI,[38],8.15 µM
same,GI50,[39],1.69 µM
same,TGI,[39],6.21 µM
same,GI50,[40],2.11 µM
same,TGI,[40],7.39 µM
same,GI50,[41],2.87 µM
same,TGI,[41],24.1 µM
same,GI50,[42],1.81 µM
same,TGI,[42],15.8 µM
same,GI50,[58],10.9 µM
same,TGI,[58],23.9 µM
same,GI50,[43],1.87 µM
same,TGI,[43],11.3 µM
same,GI50,[44],0.624 µM
same,TGI,[44],6.79 µM
same,GI50,[45],1.86 µM
same,TGI,[45],11.5 µM
same,GI50,[46],1.35 µM
same,TGI,[46],10.2 µM
same,GI50,[48],2 µM
same,TGI,[48],9.45 µM
same,GI50,[49],3.47 µM
same,TGI,[49],14.1 µM
same,GI50,[50],4.13 µM
same,TGI,[50],31.6 µM
same,GI50,[51],2.03 µM
same,TGI,[51],6.26 µM
same,GI50,[52],1.44 µM
same,TGI,[52],10.8 µM
same,GI50,[53],0.551 µM
same,TGI,[53],5.25 µM
same,GI50,[54],2.54 µM
same,TGI,[54],11.1 µM
same,GI50,[55],2.05 µM
same,TGI,[55],19.5 µM
same,GI50,[56],2.67 µM
same,TGI,[56],7.92 µM
Nc1nc(CCl)nc(N2CCOCC2)n1,TGI,[1],38 µM
same,TGI,[2],33.4 µM
same,TGI,[3],> 100 µM
same,TGI,[4],> 100 µM
same,TGI,[6],44.5 µM
same,TGI,[7],29.2 µM
same,TGI,[8],> 100 µM
same,TGI,[9],61.8 µM
same,TGI,[10],34.9 µM
same,TGI,[11],> 100 µM
same,TGI,[12],> 100 µM
same,TGI,[13],> 100 µM
same,TGI,[14],> 100 µM
same,TGI,[57],66.1 µM
same,TGI,[15],47.3 µM
same,TGI,[16],> 100 µM
same,TGI,[17],45.9 µM
same,TGI,[18],31.4 µM
same,TGI,[19],32.5 µM
same,TGI,[20],> 100 µM
same,TGI,[21],32.2 µM
same,TGI,[22],32.5 µM
same,TGI,[23],45.7 µM
same,TGI,[24],> 100 µM
same,TGI,[25],32.6 µM
same,TGI,[26],> 100 µM
same,TGI,[28],51.9 µM
same,TGI,[29],> 100 µM
same,TGI,[30],> 100 µM
same,TGI,[31],> 100 µM
same,TGI,[32],53.9 µM
same,TGI,[33],31.6 µM
same,TGI,[35],11.1 µM
same,TGI,[36],> 100 µM
same,TGI,[37],> 100 µM
same,TGI,[38],41.1 µM
same,TGI,[39],> 100 µM
same,TGI,[40],> 100 µM
same,TGI,[41],> 100 µM
same,TGI,[42],35.6 µM
same,TGI,[58],> 100 µM
same,TGI,[43],30.5 µM
same,TGI,[44],78.7 µM
same,TGI,[45],36.3 µM
same,TGI,[46],46.2 µM
same,TGI,[47],54.4 µM
same,TGI,[48],> 100 µM
same,TGI,[49],> 100 µM
same,TGI,[50],> 100 µM
same,TGI,[51],35.1 µM
same,TGI,[52],98.6 µM
same,TGI,[53],> 100 µM
same,TGI,[54],60.4 µM
same,TGI,[55],> 100 µM
same,TGI,[56],89.2 µM
